Assay results as given in patent publication US5011850A, “Substituted diazolylalkyl-carbinols, a process for their preparation and their use as antimycotic agents” (Bayer Aktiengesellschaft, priority 1983, dated 1991).
In brackets after ≈: the same amount, converted by molar mass.

Assays:
[1] = system: Candida; assay: Antimycotic in vivo activity (oral) in candidosis of mice; design: species or system mice (SPF-CF1); details: 10-50 mg/kg one hour before and seven hours after infection, result in words
Protocol: Mice of the SPF-CF1 type were infested intravenously with 1-2×10^6 logarthmically growing Candida cells, which were suspended in physiological saline solution. The animals were treated with, in each case, 10-50 mg/kg of body weight of the products one hour before and seven hours after the infection.

[2] = system: dermatophytes, moulds and yeasts; assay: Antimycotic in vitro activity, series dilution test (overall action spectrum); assay type: cell-based; details: result in words
Protocol: (§1) The in vitro tests were carried out in a series dilution test with germ inocula of on average 5×10^4 germs/ml of substrate. The nutrient medium used was (a) for dermatophytes and moulds: Sabourand's milieu d'epreuve, and (b) for yeasts: meat extract/glucose broth. The incubation temperature was 20° C. and the duration of incubation was 24 to 96 hours in the case of yeasts and 96 hours in the case of dermatophytes and moulds.

[3] = system: Torulopsis glabrata; assay: Antimycotic in vitro activity, series dilution test; assay type: cell-based; details: Nakaseomyces glabratus; meat extract/glucose broth; 5×10^4 germs/ml; 20° C.; 24 to 96 hours
Protocol: as §1, with “was” for “was (a) for dermatophytes and moulds: Sabourand's milieu d'epreuve, and”

[4] = system: Candida albicans; assay: as above; assay type: cell-based; details: meat extract/glucose broth, 5×10^4 germs/ml, 20° C., 24 to 96 hours
Protocol: as §1, with “was” for “was (a) for dermatophytes and moulds: Sabourand's milieu d'epreuve, and”

[5] = system: Trichophyton mentagr.; assay: as above; assay type: cell-based, Trichophyton mentagrophytes; details: Sabourand's milieu d'epreuve, 5×10^4 germs/ml, 20° C., 96 hours
Protocol: as §1, with “[…]” for “and (b) for yeasts: meat extract/glucose broth.”

[6] = system: Aspergillus fumigatus; assay: as above; assay type: cell-based; details: Sabourand's milieu d'epreuve, 5×10^4 germs/ml, 20° C., 96 hours
Protocol: as §1, with “[…]” for “and (b) for yeasts: meat extract/glucose broth.”

| Structure (SMILES) | MIC [3] | MIC [4] | MIC [5] | MIC [6] | antimycotic action in candidosis of mice (in words) [1] | antimycotic action spectrum in vitro [2] |
| --- | --- | --- | --- | --- | --- | --- |
| CC(C)(n1cncn1)C(O)(Cn1cncn1)c1ccc(Cl)cc1 (stereo not drawn) [Example 1, 2-(4-chlorophenyl)-1,3-di-(1,2,4-triazol-1-yl)-3-methyl-2-butanol] | – | – | – | – | good antimycotic action | – |
| CC(C)(n1cncn1)C(O)(Cn1cncn1)c1ccc(F)cc1 (stereo not drawn) [Example 3] | 64 µg/mL (≈ 202 µM) | 16 µg/mL (≈ 50.6 µM) | 16 µg/mL (≈ 50.6 µM) | > 64 µg/mL | good antimycotic action | good antimycotic action spectrum |
| CC(C)(n1cncn1)C(O)(Cn1cncn1)c1ccccc1 (stereo not drawn) [Example 4] | – | – | – | – | good antimycotic action | – |
| CC(C)(n1cncn1)C(O)(Cn1cncn1)c1ccc(-c2ccc(Cl)cc2)cc1 (stereo not drawn) [Example 6] | – | 64 µg/mL (≈ 157 µM) | ≤ 1 µg/mL | 16 µg/mL (≈ 39.1 µM) | – | good antimycotic action spectrum |
| CC(C)(n1cncn1)C(O)(Cn1ccnc1)c1ccc(-c2ccc(Cl)cc2)cc1 (stereo not drawn) [Example 9] | 8 µg/mL (≈ 19.6 µM) | 8 µg/mL (≈ 19.6 µM) | 4 µg/mL (≈ 9.81 µM) | 32 µg/mL (≈ 78.4 µM) | – | good antimycotic action spectrum |

More lines, main results first:

| MIC [3] | MIC [4] | MIC [5] | MIC [6] | Structure (SMILES) | antimycotic action in candidosis of mice (in words) [1] | antimycotic action spectrum in vitro [2] |
| --- | --- | --- | --- | --- | --- | --- |
| 32 µg/mL (≈ 75.3 µM) | 2 µg/mL (≈ 4.71 µM) | ≤ 1 µg/mL | > 64 µg/mL | CC(C)(n1cncn1)C(O)(Cn1cncn1)c1ccc(Oc2ccc(Cl)cc2)cc1 (stereo not drawn) [Example 5] | good antimycotic action | good antimycotic action spectrum |
| 32 µg/mL (≈ 75.5 µM) | 4 µg/mL (≈ 9.44 µM) | 8 µg/mL (≈ 18.9 µM) | 64 µg/mL (≈ 151 µM) | CC(C)(n1cncn1)C(O)(Cn1ccnc1)c1ccc(Oc2ccc(Cl)cc2)cc1 (stereo not drawn) [Example 8] | – | good antimycotic action spectrum |
| 64 µg/mL (≈ 178 µM) | 2 µg/mL (≈ 5.55 µM) | 2 µg/mL (≈ 5.55 µM) | 64 µg/mL (≈ 178 µM) | CC(n1cncn1)C(O)(Cn1cncn1)c1ccc(-c2ccccc2)cc1 (stereo not drawn) [Example 10] | – | good antimycotic action spectrum |
